Results on 18 compounds are retold here after PubChem BioAssay (NCI).

Common to all, as to assay: growth of human tumour cells (NCI), 48 h
The test system of assay [1] is A549 NSCLC.
Assay [2] relates to HCT-15 colon.
The test system of assay [3] is LOX IMVI melanoma.
Assay [4] relates to MOLT-4 leukemia.
The subject of assay [5] is NCI/ADR-RES ovarian.
In assay [6] the test system is OVCAR-5 ovarian.
The test system of assay [7] is SF-539 CNS.
Assay [8] has as its system SK-MEL-28 melanoma.
For assay [9], the system named is SK-MEL-5 melanoma.
Assay [10] deals with SW-620 colon.
Assay [11] concerns U251 CNS.
Assay [12] deals with UACC-257 melanoma.
The subject of assay [13] is RPMI-8226 leukemia.

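Compound exposure: 48 hours, 5 concentrations, 96-well plates. GI50 = concentration required for 50% inhibition of growth. TGI denotes the concentration required for complete inhibition of growth.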

On to `COC(=O)c1c(C)cccc1CC1Cc2c(C)cccc2C1=O` (centres undefined), for which the TGI in [1] is greater than 100 µM; in assay [2], greater than 100 µM; in assay [3] it was 33.6 µM; in [4], 79.1 µM; in [5], 64.2 µM; in assay [6], greater than 100 µM. For the same compound, the TGI in [7] is greater than 100 µM; in assay [8], greater than 100 µM; in assay [9], 37.5 µM; in assay [10] it was greater than 100 µM; in assay [11], greater than 100 µM; in assay [12], 72.9 µM.
`COc1cc2c(c(OC)c1OC)-c1ccc(SC)cc1[C@H](OC(=O)c1ccccc1)CC2`: the TGI is greater than 40.6 µM in assay [2]; greater than 100 µM in assay [3]; greater than 100 µM in assay [4]; greater than 100 µM in [6]; 0.0841 µM in assay [7]; greater than 100 µM in [8]. Also, the TGI is 1.21 µM in assay [9], greater than 100 µM in assay [10] and greater than 100 µM in [12].
On to `COC(=O)c1c(C)cccc1/C=C1\Cc2cc(C)cc(C)c2C1=O`, for which the TGI in assay [1], in assay [2], in assay [3], in assay [4], in assay [6] and in assay [13] was greater than 100 µM in each case. The TGI in assay [7] is greater than 100 µM; in assay [8], greater than 100 µM; in [9], greater than 100 µM; in assay [10] it was greater than 100 µM; in assay [11] it was 48.2 µM; in assay [12] it was greater than 100 µM.
With `CCN(CC)C(=S)SS(=O)(=O)c1ccc([N+](=O)[O-])cc1`, the TGI in [1] is greater than 100 µM; in assay [2], greater than 100 µM; in assay [3] it was 33.8 µM; in assay [5] it was greater than 100 µM; in [6], greater than 100 µM; in assay [13], 48.8 µM. The TGI in assay [7] was found to be 40 µM; in assay [8] it was 38.3 µM; in assay [9] it was 29.2 µM; in assay [10] it was 37.1 µM; in assay [11], 36.7 µM; in assay [12], 53.5 µM. Besides, the GI50 in [2] was 52.7 µM; in [5] it was 48.3 µM; in assay [8], 19 µM; in assay [10] it was 17.9 µM; in assay [12], 24 µM.
For `COc1cc(COC(=O)N2CCC2C(=O)O)c([N+](=O)[O-])cc1OC` (centres undefined), the TGI in assay [1], in [2], in [4], in assay [5], in [6] and in [13] was greater than 100 µM in each case. Also, the TGI in assay [7], in assay [8], in assay [9], in assay [10], in assay [11] and in assay [12] was greater than 100 µM each time.
Consider `CCOc1cc(NC(C)=O)ccc1C(=O)NN1C(=O)/C(=C/c2cc(OC)c(OC)c(OC)c2)N=C1c1ccccc1`, for which the TGI in assay [1], in [2], in [3], in [4], in [5] and in assay [6] was greater than 100 µM throughout. In addition, the TGI in [7], in assay [8], in assay [9], in assay [10] and in [12] was greater than 100 µM throughout.
As to `CCC1C(c2cc(OC)c(OC)c(OC)c2)c2cc3c(cc2OC1N1CCOCC1)OCO3` (centres undefined), the TGI in assay [1] was 17.8 µM; in assay [2], greater than 100 µM; in assay [3], 10.5 µM; in assay [5], greater than 100 µM; in [6], 15.6 µM; in assay [9] it was 6.38 µM. For the same compound, the TGI worked out at 10.3 µM in assay [10] and 55.5 µM in assay [12].
For the compound `CC1(C)Oc2ccc3c(=O)cc(-c4ccc(F)cc4)oc3c2C1C(=O)O` (centres undefined), the TGI in assay [1], in assay [4], in [5], in assay [6], in assay [7] and in assay [9] was greater than 100 µM each time. The TGI in [11] and in assay [12] was greater than 100 µM each time.
`O=[N+]([O-])c1cn[n+]([O-])c2ccccc12`: the TGI in assay [1] was found to be 30.1 µM; in assay [2], 8.52 µM; in assay [3], 20.9 µM; in [5] it was 19.2 µM; in assay [6] it was 25.6 µM; in [13] it was 7.37 µM. For the same compound, the TGI in assay [7] amounted to 22.7 µM; in [8], 26.1 µM; in assay [9], 26.7 µM; in assay [10], 4.91 µM; in assay [11], 15 µM; in assay [12] it was 26.2 µM.
As for `C[C@H](O)C1CC(Cn2nnc3c(N)ncnc32)C1(C)C` (some centres undefined), the TGI in assay [1], in assay [2], in assay [3], in assay [5], in [6] and in assay [7] was greater than 100 µM in each case. Also, the TGI in [8], in [9], in assay [10], in [11] and in assay [12] was greater than 100 µM throughout.
Consider `COc1cccc(-c2cc(=O)c3c(C)ccnc3[nH]2)c1`, for which the TGI in [1] is greater than 100 µM; in assay [3], greater than 100 µM; in [4] it was greater than 100 µM; in assay [6] it was greater than 100 µM; in [13], 11.8 µM; in assay [9], 3.71 µM. The TGI in [10] and in assay [11] was greater than 100 µM throughout.
On to `Cc1ccc(N=C2C(=O)C3=C(OC(C)(C)CC3)c3ccccc32)cc1`, for which the TGI was 3.69 µM in assay [1]; 3.08 µM in assay [4]; 1.75 µM in assay [5]; 3.5 µM in assay [6]; 0.933 µM in assay [13]; 4.69 µM in assay [8]. In addition, the TGI in [9] is 2.28 µM; in assay [10], 2.14 µM; in assay [11], 1.91 µM; in assay [12], 1.72 µM.
On to `c1ccc(-c2nn(-c3ccccc3)[n+](-c3ccccc3)n2)cc1`, for which the TGI in assay [1] was greater than 100 µM; in [2] it was greater than 100 µM; in assay [3] it was greater than 92.4 µM; in assay [4], greater than 100 µM; in assay [5], greater than 100 µM; in assay [6], greater than 100 µM. The TGI in [7] was greater than 100 µM; in assay [8] it was greater than 100 µM; in assay [9] it was 14.1 µM; in assay [10], greater than 100 µM; in assay [11], greater than 100 µM; in [12], 11.7 µM.
On to `O=S1C2=C(Cc3ccccc3)C(Cc3ccccc3)=C1CCc1cccc(c1)CC2`, for which the TGI was found to be 36.3 µM in assay [1]; 30.5 µM in assay [2]; 28.1 µM in assay [3]; 63.7 µM in assay [4]; 38.7 µM in assay [5]; 35.5 µM in [6]. For the same compound, the TGI in [7] turned out to be 41 µM; in [8] it was 42.3 µM; in [9], 30 µM; in assay [10], 77.9 µM; in assay [11], 26.8 µM; in assay [12], 27.8 µM.
As to `CC(C)=CCC/C(C)=C/CC/C(C)=C/CC/C(C)=C/CC/C(C)=C\CC/C(C)=C/CC/C(C)=C/CC/C(C)=C/Cc1cc(O)ccc1O`, the TGI in assay [1] was greater than 22.6 µM; in assay [2] it was greater than 33.4 µM; in assay [4], 8.34 µM; in assay [5], 1.92 µM; in [6], 36.4 µM; in assay [7], 3.19 µM. Besides, the TGI in assay [8] was greater than 100 µM; in assay [10] it was greater than 100 µM; in assay [11], 4.06 µM; in assay [12], 2.91 µM.
In the case of `O=C(CSCC(=O)N/N=C\c1ccc(-c2ccccc2)cc1)N/N=C\c1ccc(-c2ccccc2)cc1`, the TGI in assay [1] was 54.4 µM; in assay [2], greater than 100 µM; in [3], 32.4 µM; in [4], greater than 100 µM; in [5] it was greater than 100 µM; in assay [6], 74.8 µM. The TGI in assay [7] is 37.9 µM; in [8], greater than 100 µM; in [9], greater than 100 µM; in [10], 38.4 µM; in assay [11], 31.5 µM; in assay [12], greater than 100 µM.
Turning to `CC(C)CCn1c(=O)c2c(=O)[nH][nH]c2c2ccccc21`, the TGI in assay [1], in assay [2], in assay [3], in [5], in assay [6] and in assay [13] was greater than 100 µM throughout. For the same compound, the TGI in assay [7], in assay [8], in assay [9], in [10], in [11] and in [12] was greater than 100 µM in each case.
For `COc1ccc(CC2NC(=O)/C=C/CC(C(C)C3OC3c3ccccc3)OC(=O)C(CC(C)C)OC(=O)C(C)CNC2=O)cc1Cl` (centres undefined), the TGI is greater than 0.1 µM in [1]; greater than 0.1 µM in [2]; greater than 0.1 µM in assay [3]; greater than 0.1 µM in [6]; greater than 0.1 µM in assay [13]; 4.43e-05 µM in assay [7]. Moreover, the TGI in assay [8] is greater than 0.1 µM; in assay [9] it was 0.000657 µM; in assay [10], greater than 0.1 µM; in [11], greater than 0.1 µM; in assay [12], greater than 0.1 µM.
